{"source": "patent US20210000912A1", "about": "“Compositions And Methods For Prophylaxis Or Treatment Of Pain” (Interk Peptide Therapeutics Limited, priority 2017, published 2021)", "key": {"CFA-injected mice [1]": {"test_system": "CFA-injected mice", "experiment": "Grip strength testing in CFA study", "type": "in vivo, C57Bl/6 mice", "conditions": "intra-peritoneal, CFA study", "description": "Forepaw grip strength was determined using a grip strength meter (DFIS-2 series digital force gauge, Columbus Instruments, Columbus, Ohio). The animals' forelimbs were placed on a horizontal bar connected to a force gauge. The animal was the gently pulled away from the bar and the peak force required for a release was recorded. Each mouse was tested 3 times, with a 1 min inter-trial interval (Martinez-Huenchullan, S. F., et al., “Utility and reliability of non-invasive muscle function tests in high-fat-fed mice”. Experimental Physiology, 2017. 102(7): p. 773-778). The average peak tension (g), and tension normalised to body weight were compared."}, "CFA-injected mice [2]": {"test_system": "CFA-injected mice", "experiment": "CFA inflammatory pain model, incapacitance testing"}}, "note": "“Also recorded” adds a separate entry of the source."}
{"smiles": "CN1CC[C@]23c4c5ccc(O)c4O[C@H]2[C@@H](O)C=C[C@H]3[C@H]1C5", "note": "[morphine]", "values": [{"measurement": "grip strength compared to vehicle control", "setting": "CFA-injected mice [1]", "value": "increased grip strength"}, {"measurement": "effectiveness in incapacitance test, morphine versus IK01400, pooled data", "setting": "CFA-injected mice [2]; first 30 minutes after injection", "value": "more effective"}, {"measurement": "hyperactivity", "setting": "CFA-injected mice [2]; mice, intra-peritoneal", "value": "observed to induce hyperactivity"}, {"measurement": "effectiveness in incapacitance test, morphine versus IK01400 (8.6 mg/kg)", "setting": "CFA-injected mice [2]; second hour after administration", "value": "less effective than IK01400; also recorded: reduced"}]}
